Data on 8 compounds can be found in patent US11033547B2, “Carboxamide-pyrimidine derivatives as SHP2 antagonists” (Merck Patent GmbH, priority 2019, dated 2021).

Each structure is given as a SMILES string. Structures can show the parent of a compound that is named as a salt. Where two headings read alike, the source gives them in different places.

For data set [1], the target named is Kv11.1 (hERG) ion channel (Homo sapiens (Human), UniProt Q12809). The class given is cell-based. The following applies: ratio of hERG Ki (patch clamp) to pERK IC50 in KYSE520. How it is done:
Inhibition of the ion channel hErg (or Kv11.1) current causes QT interval prolongation resulting in potentially fatal ventricular tachyarrhythmia called Torsade de Pointes.
hERG ion channel activity was assessed using a patch clamp technique in stable Kv11.1 (hERG) transfected human embryonic kidney cell line (HEK293). Whole cell recordings were carried out with an automated patch clamp device Patchliner™ from Nanion Technologies, Munich following manufacturer recommendation. Different concentrations of the test compound or reference, quinidine, were applied to whole cells suspension and current was measured using a pulse pattern with fixed amplitudes.
Background: hERG is a cardiac potassium channel; its block is linked to QT prolongation.

The target of data set [2] is Full length SHP2 protein (Recombinant Human SHP-2) (Homo sapiens, UniProt Q06124). Put plainly: SHP2 biochemical assay (DiFMUP substrate, activating peptide IRSI_2pY). How it is done:
The inhibition of SHP2 by compounds of the invention was monitored using the surrogate substrate DiFMUP after protein activation by a peptide bearing two appropriately spaced phosphotyrosine. […] The generation of the DiFMU product by activated SHP2 was monitored through Fluorescence measurement with a PerkinElmer Envision reader.
The inhibitor dose response curves were analyzed with Genedata Screener.

Data set [3] has as its system pERK level in MDA-MB-468 cells. Put plainly: p-Erk cellular assay in MDA-MB-468 (Mesoscale). The class given is cell-based. The following applies: 2 h incubation, read-out: pERK1/2 in MDA-MB-468 IC50. How it is done:
(§1) p-Erk Cellular Assay in MDA-MB-468 and KYSE520:
(§2) The effect of SHP2 inhibitors on pERK level was assessed using phospho-specific antibody using Mesoscale quantification platform. For measuring change in pERK levels using mesoscale, 30,000 cells of MDA MB468 and KYSE520 cells were plated in 96-well tissue culture treated plate in 175 ul volume of media. After an overnight incubation at 37° C., various SHP2 inhibitors were added in different concentration to each well maintaining duplicate wells across plates and incubated with compounds for 2 h at 37° C. followed by a wash with ice cold PBS buffer. The cells were then lysed in lysis buffer and processed and analyzed for p-ERK/ERK as per manufacturer's instructions (Mesoscale discovery, cat No. K15107D-3).

Data set [4] deals with pERK level in KYSE520 cells. Put plainly: p-Erk cellular assay in KYSE520 (Mesoscale). The following applies: 2 h incubation, read-out: pERK1/2 in KYSE520 IC50. The data set is classed as cell-based. How it is done:
as §1, §2

Data set [5] is described as follows: Pharmacokinetics in female CD1 mice (oral / intravenous). The following applies: mouse PK; for clearance / Vd: female, CD1, plasma, intravenous; for Vd: read-out: Vd ss. The data set is classed as in vivo. The method, then: Female CD1 mice (N=3) received a single oral (gavage) or a single intravenous (bolus) injection of compound. […] Consecutive blood samples were taken sub-lingually under isofluorane inhalation from animals after 0.083 (IV), 0.25, 0.5, 1, 2, 4, 6 and 24 h and were further processed to obtain plasma. Samples were protein precipitated and analyzed by LC/MS/MS.

Data set [6] deals with T1, auto-activated mutant protein SHP2 E76K (Homo sapiens (Human), UniProt Q06124, E76K). Put plainly: SHP2 E76K mutant biochemical assay without activating peptide. The following applies: no activating peptide, read-out: SHP-2 E76Z IC50 No peptide. The method, then:
(§3) The inhibition of SHP2 by compounds of the invention was monitored using the surrogate substrate DiFMUP after protein activation by a peptide bearing two appropriately spaced phosphotyrosine. Full length SHP2 protein (Recombinant HumanSHP-2, E. coli derived Ser2Arg593, N-terminal 6His tag from R&D systems; […]) was incubated with activating peptide, IRSI_2pY (New England Peptide, 140 nM) and DiFMUP (molecular probes, 80 uM) at RT in buffer (HEPES pH 7.2 60 mM, DDT 5 mM, KCl 75 mM, NaCl 75 mM, EDTA 1 mM, Tween 20 0.05%) in presence of compound (10 concentrations range, top concentration 50 μM) for 60 min. The generation of the DiFMU product by activated SHP2 was monitored through Fluorescence measurement with a PerkinElmer Envision reader.
(§4) A selection of compounds has been tested in a biochemical assay using same conditions as described in example 3, but with an auto-activated mutant protein SHP2 E76K with and without the addition of the activating peptide IRSI_2pY (New England Peptide, 140 nM).

Data set [7] concerns the target T1, auto-activated mutant protein SHP2 E76K. Put plainly: SHP2 E76K mutant biochemical assay with activating peptide IRSI_2pY. The conditions noted are these: SHP2 E76K mutant with activating peptide IRSI_2pY 140 nM; read-out: SHP-2 E76Z IC50 peptide. How it is done: as §3, §4
Setting [8] is: DiFMUP substrate, activating peptide IRSI_2pY, 60 min at RT, read-out: SHP-2 Biochemical assay IC50.

Chain of Full length SHP2 protein (Recombinant Human SHP-2) (Q06124 2-593 limits assumed): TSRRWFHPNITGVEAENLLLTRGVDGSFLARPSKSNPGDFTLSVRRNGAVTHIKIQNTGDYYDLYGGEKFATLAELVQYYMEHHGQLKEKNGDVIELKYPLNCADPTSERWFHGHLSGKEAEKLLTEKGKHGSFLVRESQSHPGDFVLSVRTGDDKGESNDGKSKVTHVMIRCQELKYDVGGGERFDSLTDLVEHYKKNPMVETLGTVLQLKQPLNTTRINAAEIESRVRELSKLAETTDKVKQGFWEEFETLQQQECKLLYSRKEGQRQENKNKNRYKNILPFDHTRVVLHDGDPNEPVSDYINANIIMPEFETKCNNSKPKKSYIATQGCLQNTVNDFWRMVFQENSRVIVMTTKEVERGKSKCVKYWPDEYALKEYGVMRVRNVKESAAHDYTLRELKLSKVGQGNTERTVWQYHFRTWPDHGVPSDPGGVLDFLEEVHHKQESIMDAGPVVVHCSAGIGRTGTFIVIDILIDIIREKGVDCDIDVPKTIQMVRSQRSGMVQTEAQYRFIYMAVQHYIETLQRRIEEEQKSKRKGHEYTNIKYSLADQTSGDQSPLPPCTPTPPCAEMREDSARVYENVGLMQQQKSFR
Chain of Kv11.1 (hERG) ion channel (Q12809 whole entry): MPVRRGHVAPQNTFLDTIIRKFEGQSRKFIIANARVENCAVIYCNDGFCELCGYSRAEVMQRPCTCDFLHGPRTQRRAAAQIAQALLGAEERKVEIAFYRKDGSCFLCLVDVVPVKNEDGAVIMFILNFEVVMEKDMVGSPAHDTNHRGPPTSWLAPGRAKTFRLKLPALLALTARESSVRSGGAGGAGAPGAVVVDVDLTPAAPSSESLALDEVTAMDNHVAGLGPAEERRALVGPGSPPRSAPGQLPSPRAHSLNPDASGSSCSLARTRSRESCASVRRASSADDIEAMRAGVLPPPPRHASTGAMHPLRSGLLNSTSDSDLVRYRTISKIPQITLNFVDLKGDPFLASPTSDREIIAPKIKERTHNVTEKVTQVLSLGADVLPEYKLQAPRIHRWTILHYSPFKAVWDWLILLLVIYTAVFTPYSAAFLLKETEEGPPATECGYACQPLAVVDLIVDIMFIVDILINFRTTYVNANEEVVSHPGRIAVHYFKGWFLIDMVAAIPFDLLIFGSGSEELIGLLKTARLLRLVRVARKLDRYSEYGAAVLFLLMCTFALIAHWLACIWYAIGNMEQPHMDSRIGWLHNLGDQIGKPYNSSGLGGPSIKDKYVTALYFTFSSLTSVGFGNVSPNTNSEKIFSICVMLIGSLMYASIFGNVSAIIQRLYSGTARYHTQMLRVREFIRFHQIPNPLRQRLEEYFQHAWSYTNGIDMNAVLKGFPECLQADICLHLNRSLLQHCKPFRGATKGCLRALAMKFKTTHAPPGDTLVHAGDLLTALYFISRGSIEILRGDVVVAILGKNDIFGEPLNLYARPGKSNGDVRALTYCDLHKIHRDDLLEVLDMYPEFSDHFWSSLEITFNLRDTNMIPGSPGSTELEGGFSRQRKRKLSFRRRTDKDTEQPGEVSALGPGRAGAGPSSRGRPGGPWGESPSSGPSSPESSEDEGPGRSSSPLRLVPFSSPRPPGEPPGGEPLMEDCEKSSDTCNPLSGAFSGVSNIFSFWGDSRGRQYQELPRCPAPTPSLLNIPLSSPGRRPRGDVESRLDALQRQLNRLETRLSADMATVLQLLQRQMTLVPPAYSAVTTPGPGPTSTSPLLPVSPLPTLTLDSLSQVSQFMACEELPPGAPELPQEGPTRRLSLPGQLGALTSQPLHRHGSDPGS
T1 sequence (Q06124 whole entry E76K): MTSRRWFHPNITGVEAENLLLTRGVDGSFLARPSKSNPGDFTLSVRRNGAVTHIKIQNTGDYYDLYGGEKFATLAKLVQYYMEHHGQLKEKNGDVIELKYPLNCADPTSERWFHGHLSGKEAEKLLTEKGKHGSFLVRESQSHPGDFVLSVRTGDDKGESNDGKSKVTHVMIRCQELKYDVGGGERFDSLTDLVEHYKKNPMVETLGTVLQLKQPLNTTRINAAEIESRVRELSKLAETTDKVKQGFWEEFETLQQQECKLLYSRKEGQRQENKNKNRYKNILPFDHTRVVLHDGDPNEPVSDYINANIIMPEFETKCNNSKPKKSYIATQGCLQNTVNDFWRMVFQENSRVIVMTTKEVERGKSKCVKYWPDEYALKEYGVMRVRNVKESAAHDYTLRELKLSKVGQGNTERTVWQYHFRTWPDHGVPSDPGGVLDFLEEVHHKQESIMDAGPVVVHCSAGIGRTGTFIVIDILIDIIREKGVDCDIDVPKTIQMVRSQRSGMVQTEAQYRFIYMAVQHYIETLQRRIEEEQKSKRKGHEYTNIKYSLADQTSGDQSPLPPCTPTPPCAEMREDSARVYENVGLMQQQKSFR

For `Cc1nc(N2CCC3(CC2)Cc2ccccc2[C@H]3N)nc(C(N)=O)c1-c1cccc(Cl)c1Cl` (atropisomer, axis not shown; (M)) [Compound 119, (M)-2-[(1S)-1-amino-1,3-dihydrospiro[indene-2,4′-piperidin]-1′-yl]-5-(2,3-dichlorophenyl)-6-methylpyrimidine-4-carboxamide], the “Split between hErg and cell activity Ki(patch Clamp)/IC50 (KYSE)” value in data set [1] came out at 97.
As for `CC1(N)CCN(c2nc(N)c(-c3cccc(Cl)c3Cl)c(C(N)=O)n2)CC1` (single isomer, unassigned) [Compound 27, (4P)-6-Amino-2-(4-amino-4-methyl-piperidin-1-yl)-5-(2,3-dichloro-phenyl)-pyrimidine-4-carboxylic Acid Amide], in data set [2] (setting [8]), the IC50 came out at 82 nM. Moreover, the IC50 in data set [3] (Homo sapiens, MDA-MB-468, 2 h) is 342 nM. Moreover, the IC50 in data set [4] (Homo sapiens, KYSE-520, 2 h) amounted to 1470 nM. Besides, in data set [5], the clearance is 37.3 mL/min/kg, the Vd stood at 8.7 L/kg, the “Clearance as compared to SHP-099 (in words)” value was “lower clearance” and the “Exposure as compared to SHP-099 (in words)” value is listed as “higher exposure”.
Take `Cc1nc(N2CCC3(CC2)CO[C@@H](C)[C@H]3N)nc(C(N)=O)c1-c1cccc(Cl)c1Cl` (single isomer, unassigned) [Compound 95]: the IC50 in data set [2] (setting [8]) came out at 22 nM. For the same compound, in data set [3] (Homo sapiens, MDA-MB-468, 2 h), the IC50 came out at 497 nM. In data set [4] (Homo sapiens, KYSE-520, 2 h), the IC50 worked out at 486 nM. Moreover, in data set [5], the clearance was 12.8 mL/min/kg, the Vd was determined as 3.99 L/kg, the “Clearance as compared to SHP-099 (in words)” value is recorded as “lower clearance” and the “Exposure as compared to SHP-099 (in words)” value was “higher exposure”.
As to `NC(=O)c1nc(N2CCC3(CC2)Cc2ccccc2[C@H]3N)nc(N)c1-c1cccc(Cl)c1Cl` (single isomer, unassigned) [Compound 117], the IC50 in data set [2] (setting [8]) was 1 nM; in data set [2] (wild-type SHP-2 with activating peptide, read-out: SHP-2 IC50 peptide) it was 0.4 nM; in data set [6], 0.5 nM; in data set [7], 1.1 nM. Moreover, in data set [1], the “Split between hErg and cell activity Ki(patch Clamp)/IC50 (KYSE)” value was over 50.
Turning to `NC(=O)c1nc(N2CCC3(CC2)Cc2scnc2[C@H]3N)nc(N)c1-c1cccc(Cl)c1Cl` [Compound 121, 6-amino-2-[(4S)-4-amino-4,6-dihydrospiro[cyclopenta[d][1,3]thiazole-5,4′-piperidin]-1′-yl]-5-(2,3-dichlorophenyl)pyrimidine-4-carboxamide], the IC50 in data set [2] (setting [8]) was determined as 2 nM; in data set [4] (Homo sapiens, KYSE-520, 2 h), 16 nM. Further, in data set [1], the “Split between hErg and cell activity Ki(patch Clamp)/IC50 (KYSE)” value is given as over 600.
With `NC(=O)c1nc(N2CCC3(CC2)Oc2ccccc2[C@H]3N)nc(N)c1-c1cccc(Cl)c1Cl` [Compound 123, 6-amino-2-((R)-3-amino-3H-spiro[benzofuran-2,4′-piperidin]-1′-yl)-5-(2,3-dichlorophenyl)pyrimidine-4-carboxamide di-hydrochloride], the IC50 is 15 nM in data set [2] (setting [8]) and 58 nM in data set [4] (Homo sapiens, KYSE-520, 2 h). Moreover, in data set [1], the “Split between hErg and cell activity Ki(patch Clamp)/IC50 (KYSE)” value is over 100.
As for `CC1(N)CCN(c2nc(N)c(-c3cccc(Cl)c3Cl)c(C(N)=O)n2)CC1` [Compound No. 3, 6-Amino-2-(4-amino-4-methyl-piperidin-1-yl)-5-(2,3-dichlorophenyl)-pyrimidine-4-carboxylic Acid Amide], the IC50 in data set [2] (setting [8]) was 160 nM; in data set [3], 346 nM; in data set [4], 754 nM. Moreover, the “Split between hErg and cell activity Ki(patch Clamp)/IC50 (KYSE)” value in data set [1] was over 14.
In the case of `C[C@@H]1OCC2(CCN(c3nc(N)c(-c4cccc(Cl)c4Cl)c(C(N)=O)n3)CC2)[C@@H]1N` [Compound No. 5, 6-amino-2-[(3S,4S)-4-amino-3-methyl-2-oxa-8-azaspiro[4.5]decan-8-yl]-5-(2,3-dichlorophenyl)pyrimidine-4-carboxamide], the IC50 came to 72 nM in data set [2] (setting [8]); 1010 nM in data set [3] (Homo sapiens, MDA-MB-468, 2 h); 1090 nM in data set [4] (Homo sapiens, KYSE-520, 2 h). For the same compound, the “Split between hErg and cell activity Ki(patch Clamp)/IC50 (KYSE)” value in data set [1] is over 10.
